Assay results taken from the NIST ThermoML archive (doi:10.1016/j.fluid.2014.01.022).
Numbers after ± are expanded uncertainties.

Columns and labels:
[1] = refractive index (Na D-line) (dimensionless); conditions: 298.15 K; 101.3 kPa; Liquid; Standard Abbe refractometry
[2] = Liquid; for mass density: 298.15 K, 101.33 kPa, Vibrating tube method; for Normal boiling temperature: Ebulliometric method (Recirculating still)

| SMILES | refractive index [1] | mass density [2] | Normal boiling temperature [2] |
| --- | --- | --- | --- |
| COCC(C)O (stereo not given) [1-methoxy-2-propanol] | 1.4024 ± 0.0007 | 916.5 ± 0.2 kg/m3 | 120.2 ± 1 °C |
| CC(C)O [propan-2-ol] | 1.375 ± 0.0007 | 781.4 ± 0.2 kg/m3 | 82.5 ± 1 °C |

Next, values leading:

| refractive index [1] | mass density [2] | Normal boiling temperature [2] | SMILES |
| --- | --- | --- | --- |
| 1.3596 ± 0.0007 | 927.5 ± 0.2 kg/m3 | 57.2 ± 1 °C | COC(C)=O [methyl ethanoate] |
| 1.3269 ± 0.0007 | 786.9 ± 0.2 kg/m3 | 64.6 ± 1 °C | CO [methanol] |
| 1.4 ± 0.0007 | 963 ± 0.2 kg/m3 | 146 ± 1 °C | COCC(C)OC(C)=O (stereo not given) [1-methoxy-2-propyl acetate] |
